The values that follow come from ChEMBL document CHEMBL1759873, “Novel thiolactone-isatin hybrids as potential antimalarial and antitubercular agents” (Bioorg Med Chem Lett, 2011).

For one assay, the system named is Plasmodium falciparum. Put plainly: Antiplasmodial activity against Plasmodium falciparum W2. It counts as functional, organism-based.
In assay [1] the test system is Mycobacterium tuberculosis. The assay is described as follows: Antitubercular activity against Mycobacterium tuberculosis H37Rv by microplate alamar blue assay. The assay is classed as functional.
For assay [2], the system named is Mycobacterium tuberculosis. Put plainly: Antitubercular activity against Mycobacterium tuberculosis H37Rv at 1 ug/ml by BACTEC radiometric susceptibility assay. The assay is classed as functional.
For assay [3], the system named is Mycobacterium tuberculosis. Put plainly: Antitubercular activity against Mycobacterium tuberculosis H37Rv by LORA assay. The assay is classed as functional.
Assay [4] has as its system Mycobacterium tuberculosis. Put plainly: Antitubercular activity against Mycobacterium tuberculosis H37Rv at 10 ug/ml by BACTEC radiometric susceptibility assay. The assay is classed as functional.
A short description of assay [5]: Inhibition of Plasmodium falciparum W2 recombinant falcipain-2.

In brackets after ≈: the same amount, converted by molar mass. Where only a bound is given, the exact number is not on record here.

`O=C1C(=O)N(CCCCCBr)c2ccccc21`: the results for the IC50 (in the assay on Plasmodium falciparum; in assay [5]) were greater than 20 µM and greater than 100 µM, respectively. Also, the MIC came out at 23.2 µM (≈ 6.87 µg/mL) in assay [1] and 44.4 µM (≈ 13.1 µg/mL) in assay [3]. Further, the inhibition at 1 µg/mL in assay [2] is -22.1%. Moreover, in assay [4], the inhibition at 10 µg/mL amounted to 34.8%.

Take `CC1=C(OCCN2C(=O)C(=O)c3cc(Cl)ccc32)C(C)SC1=O` (centres undefined): the IC50 was greater than 20 µM in the assay with Plasmodium falciparum and 47.8 µM in assay [5]. The MIC in assay [1] was 63.7 µM (≈ 22.4 µg/mL); in assay [3], 117 µM (≈ 41.2 µg/mL). Besides, the inhibition at 1 µg/mL in assay [2] was -2.8%. Also, the inhibition at 10 µg/mL in assay [4] was determined as 9.9%.

For the compound `O=C1C(=O)N(CCCCBr)c2ccc(Br)cc21`, the concentration for half-maximal inhibition (IC50) in the assay with Plasmodium falciparum was greater than 20 µM; in assay [5] it was greater than 100 µM. Also, the MIC is 30.5 µM (≈ 11 µg/mL) in assay [1] and 37.7 µM (≈ 13.6 µg/mL) in assay [3].

Take `O=C1C(=O)N(CCCCBr)c2ccc(F)cc21`: the IC50 in the assay with Plasmodium falciparum was greater than 20 µM; in assay [5] it was greater than 100 µM. In addition, the MIC amounted to 123 µM (≈ 36.9 µg/mL) in assay [1] and 53.3 µM (≈ 16 µg/mL) in assay [3].

As to `O=C1C(=O)N(CCCCCCBr)c2ccccc21`, the concentration for half-maximal inhibition (IC50) in the assay with Plasmodium falciparum is greater than 20 µM; in assay [5] it was greater than 100 µM. Moreover, the MIC is 97.6 µM (≈ 30.3 µg/mL) in assay [1] and 108 µM (≈ 33.5 µg/mL) in assay [3].
